From US7122294B2, “Photoacid generators with perfluorinated multifunctional anions” (3M Innovative Properties Company, priority 2003, dated 2006)
Values joined by “and” are separate entries in the source; they are usually repeats but may differ in a detail not shown here. Equal values may be shown once.

Columns and labels:
[1] = Elimination of perfluoroalkylsulfonates from the body; assay type: in vivo; conditions: tested in the form of its potassium salt
[2] = Photo-DSC/DSC cationic curing activity of PAGs in Epon 828; set-up: PDSC Peak Max / PDSC Induction Time: unit not given here
Description: (§1) Photo-DSC/DSC: Standard (hermetic) liquid sample pans were used. Sample size was kept in the 6 to 8 mg range. Samples were tested using a Dupont Photo-DSC/DSC instrument (available from DuPont, Wilmington, Del.). The light source was a 200 W Hg lamp that delivered about 60 mw/cm at the sample. Samples were exposed in open pans for 5 minutes to the light source at 30° C. then removed from the instrument, sealed and a standard DSC scan run at 10° C./minute to 300° C. A separate DSC experiment was carried out using a sealed sample pan and no prior light exposure to determine the dark reactivity of these PAGs. Comparison of the DSC traces before and after light exposure enables differentiation between the thermal reactivity of the PAGs (in the dark) and their photochemical activity.
(§2) This example describes photo-DSC/DSC experiments designed to quantitatively compare the relative cationic curing reactivities of PAGs of the present invention containing difunctional fluoroorganic sulfonate anions with related PAGs having identical cations and monofunctional perfluoroalkanesulfonate anions. Relative reactivities were measured in three different cationically polymerizable monomer systems, including two different types of epoxies and one vinyl ether.
(§3) The photo-DSC experiment provides information on the photo-cure speed at 30° C. as measured by the induction time (onset) and time to reach the peak maximum in the curing exotherm. […] The energy released under the curing exotherm is a measure of the extent of cure; larger values mean more cure has taken place during the light exposure. […] Comparison with the DSC traces recorded with no prior light exposure provides a measure of the increase in activity after photoactivation of the PAG.
(§4) General: Stock solutions of three cationically curable monomers were prepared as shown in Table 3 with 0.1% (w/w) isopropylthioxanthone (ITX). Epon 828 is a difunctional glycidyl ether epoxy from Shell, ERL-4221 is a difunctional cycloaliphatic epoxy from Union Carbide and VEX 5015 is a trifunctional vinyl ether from Allied Signal. Because of the low sensitivity of these compositions to room lights, all sample preparation was done with the lab lights on but the hood lights off. All PAGs were formulated at 1.0% by weight in the stock monomer/sensitizer solutions. Into a small aluminum pan was weighed 0.02 g of PAG and 0.04 g of propylene carbonate used to promote dissolution of the PAG in the monomer. The pan was heated briefly on a hot plate set at 100° C. to dissolve the PAG, then 2.0 g the stock monomer/sensitizer solution was added. The solution was briefly heated again on a hot plate set at 100° C. to allow complete mixing of the components, then the solution was allowed to cool to room temperature before using.

[3] = Photo-DSC/DSC cationic curing activity of PAGs in VEX 5015; set-up: PDSC Peak Max / PDSC Induction Time: unit not given here
Description: as §1, §2, §3, §4

[4] = Thermal gravimetric analysis (TGA), onset of thermal decomposition; assay type: physicochemical; conditions: under nitrogen, ramp 10° C. per minute
Description: TGA was performed on a Perkin-Elmer Instruments TGA Model 7 in an open platinum pan. The onset of thermal decomposition, Td, was taken as the thermal decomposition temperature of the photoacid generators and was determined under nitrogen atmosphere using a temperature ramp of 10° C. per minute. The onset temperature was determined by the intersection of tangents to the low temperature portion of the baseline and the first inflection point in the wt % vs. temperature curve.

[5] = Photo-DSC/DSC cationic curing activity of PAGs in ERL-4221; set-up: PDSC Peak Max / PDSC Induction Time: unit not given here
Description: as §1, §2, §3, §4

[6] = Epon 828, DSC scan after light exposure
[7] = Epon 828, no prior light exposure
[8] = VEX 5015, DSC scan after light exposure, two values = two exotherms
[9] = ERL-4221, DSC scan after light exposure
[10] = ERL-4221, no prior light exposure

Structure (SMILES): O=S(=O)(O)C(F)(F)C(F)(F)C(F)(F)C(F)(F)F [perfluorobutylsulfonate]
- elimination from the body [1]: eliminates from the body more effectively than perfluorohexylsulfonate and much more effectively than perfluorooctylsulfonate

Structure (SMILES): CC(C)(C)c1ccc([I+]c2ccc(C(C)(C)C)cc2)cc1.CC(C)(C)c1ccc([I+]c2ccc(C(C)(C)C)cc2)cc1.O=S(=O)([O-])C(F)(F)C(F)(F)C(F)(F)C(F)(F)S(=O)(=O)[O-] [PAG2, [(p-(CH3)3C—C6H4)2I^+]2-O3S(CF2)4SO3—]
- PDSC Energy ([2]; Epon 828, 1.0% PAG, 0.1% ITX, light exposure 5 min at 30° C.): 7 J/g
- DSC after PDSC Onset Temp ([2]; Epon 828, DSC scan 10° C./minute after light exposure): 110 C.°
- DSC after PDSC Energy [2, 6]: 541 J/g
- DSC after PDSC Peak Max [2, 6]: 194 °C
- PDSC Induction Time ([2]; Epon 828, light exposure at 30° C.): 17.1
- DSC Only (dark) Energy [2, 7]: 574 J/g
- DSC Only (dark) Onset Temp [2, 7]: 175 C.°
- DSC Only (dark) Peak Max [2, 7]: 232 °C
- PDSC Peak Max ([2]; Epon 828, time to peak maximum of curing exotherm at 30° C.): 27
- solubility in PGMEA: greater than 4 wt %
- PDSC Energy ([3]; VEX 5015, 1.0% PAG, 0.1% ITX, light exposure 5 min at 30° C.): 220 J/g
- DSC after PDSC Energy ([3]; VEX 5015, DSC scan after light exposure): 31 J/g
- DSC after PDSC Onset Temp [3, 8]: 135 C.°
- DSC after PDSC Peak Max [3, 8]: 158 °C
- PDSC Induction Time ([3]; VEX 5015, light exposure at 30° C.): 1.3
- DSC Only (dark) Onset Temp ([3]; VEX 5015, no prior light exposure, two values = two exotherms): 100, C.° and 160 C.°
- PDSC Peak Max ([3]; VEX 5015, time to peak maximum of curing exotherm at 30° C.): 3.4
- onset of thermal decomposition (TGA) [4]: 237 °C
- PDSC Energy ([5]; ERL-4221, 1.0% PAG, 0.1% ITX, light exposure 5 min at 30° C.): 10 J/g
- DSC after PDSC Onset Temp ([5]; ERL-4221, DSC scan 10° C./minute after light exposure): 60 C.°
- DSC after PDSC Energy [5, 9]: 538 J/g
- DSC after PDSC Peak Max [5, 9]: 142 °C
- PDSC Induction Time ([5]; ERL-4221, light exposure at 30° C.): 14.8
- DSC Only (dark) Energy [5, 10]: 574 J/g
- DSC Only (dark) Onset Temp [5, 10]: 150 C.°
- DSC Only (dark) Peak Max [5, 10]: 196
- PDSC Peak Max ([5]; ERL-4221, time to peak maximum of curing exotherm at 30° C.): 25
